Reference: patent US20110112463A1, “COMPOSITIONS AND METHODS FOR TREATING A NEURONAL INJURY OR NEURONAL DISORDERS” (priority 2009, published 2011)
“Also recorded” adds a separate entry of the source.

System: NMDA receptors
Experiment: NMDA receptor blockade with MK-801 before intermittent photostimulation of ChR2 animals, diaphragmatic EMG
Format: in vivo, Sprague Dawley rats
From the text: Four days after C2 hemisection and/or virus injection, the animals were anesthetized as above and prepared for light treatment and physiological recordings. In a room where all light was eliminated except for that needed to accomplish the surgical procedures, approximately an eight cm incision was made at the base of the ribcage to expose the abdominal surface of the diaphragm. Bipolar electrodes, connected to an amplifier and data acquisition set-up (CED 1401/Spike2 Data Analysis Computer Interface, Cambridge Electronic Design), were inserted into both left and right hemidiaphragms to record diaphragmatic activity. After this, the cervical area of the spinal cord was reopened again for exposure to photostimulation at a wavelength of 475 nm, i.e., blue light. The light source was a portable unit capable of producing light at various wavelengths through a fiber optic cable (Model Lambda DG-4, Sutter Instrument). Diaphragmatic motor activity was recorded before, during, and after stimulation. During recording, the animals were placed on a circulating warm water blanket to maintain body temperature. The initial protocol used for photostimulation included sustained exposure (1 min) of the C3-C6 spinal cord from the light source, as well as, intermittent exposure to light at about once per second for 1 min. […] This protocol was adapted from the long-term facilitation induction protocol of 5 min normoxia followed by 5 min hypoxia (Fuller et al., 2003; Golder and Mitchell, 2005). The intermittent stimulation consisted of light exposure at 0.5 Hz, with each flash of light 1 s long.
To block NMDA receptors, 500 μl of 10 μM MK-801 (Sigma), a noncompetitive NMDA receptor antagonist, diluted in PBS, was applied to the exposed spinal cord. MK-801 was administered after 5 min of baseline recording. Recording with MK-801 continued for 5 more minutes before intermittent photostimulation and thereafter as described above.
After recording, the raw diaphragmatic EMG signal was rectified and integrated using Spike2 software. Frequency was determined by counting total breaths for 5 min before and after photostimulation. Peak amplitude and burst duration of inspiratory bursts were measured through Spike2, for at least 25 breaths before and after stimulation. Poststimulation analyses of ChR2 animals were made during regular patterned respiratory related diaphragmatic EMG activity. All values were standardized to prestimulation measures. Statistical analysis was performed using ANOVA and Tukey's post hoc analysis. All values with a p value <0.05 were considered significant. All error bars indicate SEs.

SMILES: C[C@]12N[C@H](Cc3ccccc31)c1ccccc12 [MK-801]
- effect on light-induced change in diaphragmatic EMG activity (500 μl of 10 μM MK-801 in PBS on exposed C3-C6 spinal cord, ipsilateral and contralateral): failed to elicit any kind of change in diaphragmatic EMG activity; also recorded: eliminated cycling of increasing diaphragmatic EMG activity
- animals in which intermittent photostimulation failed to elicit any change in EMG activity (500 μl of 10 μM MK-801 on exposed C3-C6 spinal cord): four of six
- frequency of breaths before and after stimulation (FIG. 4A): no change
- effect on photostimulation-induced increase of peak EMG amplitude during inspiratory bursts (FIG. 4B, brought back to control levels): abolished
- effect on photostimulation-induced increase in duration of EMG inspiratory bursts (FIG. 4C, brought back to control levels): attenuated
